Results published in patent US9981960B2, “Pyrrolidine compound and application as melanocortin receptor agonist” (MITSUBISHI TANABE PHARMA CORPORATION, priority 2014, dated 2018).

Molecular target: T1, Human MC1R (Homo sapiens, UniProt Q01726)
T1 construct: endogenous in cells; host or cells: human melanoma cell line HBL
Assay: MCR agonist measurement (cAMP measurement), human MC1R agonist activity in human melanoma cell line HBL
Type: cell-based
Settings: HBL cells; for EC50: 37° C. for 30 minutes, intracellular cAMP by fluorescence method; for Human MC1R IA %: Intrinsic Activity, vehicle cAMP = 0%, αMSH at 10^-6 M = 100%
Procedure: (1) Method for Culturing Cells
Human MC1R agonist activity measurement was carried out by using human melanoma cell line HBL. Culture of HBL: F-10 Nutrient Mixture containing 10% FCS and Penicillin-streptomycin was used in the culture.
(2) cAMP Assay and Data Calculation
Each compound solution having each concentration was mixed with cAMP assay buffer (HBSS (Hank's Balanced Salt Solution) containing 10 mM HEPES and 0.1% BSA), and dispensed into 96 well plate. HBL was suspended in cAMP assay buffer containing 0.5 mM IBMX so that the concentrate became 5×10^4/mL, dispensed into the above 96 well plate, then mixed, left to stand at 37° C. for 30 minutes, and then the intracellular […] concentration was measured by fluorescence method using Envision (ex. 320 nm, em. 590 nm and 665 nm).

T1 sequence (Q01726 whole entry): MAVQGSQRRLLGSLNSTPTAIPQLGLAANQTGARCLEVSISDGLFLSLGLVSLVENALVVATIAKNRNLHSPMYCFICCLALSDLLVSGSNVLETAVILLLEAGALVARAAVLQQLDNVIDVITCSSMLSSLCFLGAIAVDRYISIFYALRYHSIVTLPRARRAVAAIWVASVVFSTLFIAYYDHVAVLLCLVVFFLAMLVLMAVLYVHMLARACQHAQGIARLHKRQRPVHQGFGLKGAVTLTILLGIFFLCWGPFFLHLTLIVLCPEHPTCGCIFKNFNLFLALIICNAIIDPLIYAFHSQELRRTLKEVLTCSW

SMILES	EC50 [nM]	Human MC1R IA % [%]
COC[C@H]1CN(C(=O)[C@]2(F)CN(C3CCCC3)C[C@H]2c2ccc(OC)cc2)C[C@@H]1c1ccc(C(F)(F)F)cc1N1CCC(C(=O)O)CC1 [Example 19]		88
COC[C@H]1CN(C(=O)[C@]2(F)CN(C3CCCC3)C[C@H]2c2ccc(C)cc2)C[C@@H]1c1ccc(C(F)(F)F)cc1N1CCC(C(=O)O)CC1 [Example 22]	17	74
COC[C@H]1CN(C(=O)[C@]2(F)CN(C3CCCCC3)C[C@H]2c2ccc(OC)cc2)C[C@@H]1c1ccc(C(F)(F)F)cc1N1CCC(C(=O)O)CC1 [Example 27]	6.5	78
COc1ccc([C@@H]2CN(CCCS(=O)(=O)N3CCCC3)C[C@@]2(F)C(=O)N2CCC(c3ccc(C(F)(F)F)cc3N3CCC(C(=O)O)CC3)CC2)cc1 [Example 45]	23	105
COC[C@H]1CN(C(=O)[C@]2(F)CN(c3ccnc(C)c3)C[C@H]2c2ccc(OC)cc2)C[C@@H]1c1ccc(C(F)(F)F)cc1N1CCC(C(=O)O)CC1 [Example 59]	1.2	98
COC[C@H]1CN(C(=O)[C@]2(F)CN(c3ccnc(OC)c3)C[C@H]2c2ccc(OC)cc2)C[C@@H]1c1ccc(C(F)(F)F)cc1N1CCC(C(=O)O)CC1 [Example 61]	30	69
COC[C@H]1CN(C(=O)[C@]2(F)CN(c3ccc(C)nn3)C[C@H]2c2ccc(OC)cc2)C[C@@H]1c1ccc(C(F)(F)F)cc1N1CCC(C(=O)O)CC1 [Example 63]	24	92
COC[C@H]1CN(C(=O)[C@]2(F)CN(c3ccc(OC)nn3)C[C@H]2c2ccc(OC)cc2)C[C@@H]1c1ccc(C(F)(F)F)cc1N1CCC(C(=O)O)CC1 [Example 64]	19	53
COC[C@@H]1C[C@@H](c2ccc(C(F)(F)F)cc2N2CCC(C(=O)O)CC2)CN1C(=O)[C@]1(F)CN(c2ccnc(C)n2)C[C@H]1c1ccc(OC)cc1 [Example 67]	2	78
COC[C@@H]1C[C@@H](c2ccc(C(F)(F)F)cc2N2CCC(C(=O)O)CC2)CN1C(=O)[C@]1(F)CN(c2ccnc(C)c2)C[C@H]1c1ccc(OC)cc1 [Example 68]	0.94	111
COc1ccc([C@@H]2CN(C(C)(C)C)C[C@@]2(F)C(=O)N2CCC(c3ccc(C(F)(F)F)cc3N3CCC(C(=O)O)CC3)CC2)c(F)c1 [Example 75]	57	111
COc1ccc([C@@H]2CN(C(C)(C)C)C[C@@]2(F)C(=O)N2CCC(c3ccc(C(F)(F)F)cc3-c3ccc(C(=O)O)cc3)CC2)cc1 [Example 77]	69	83
COc1ccc([C@@H]2CN(C(C)(C)C)C[C@@]2(F)C(=O)N2CCC(c3ccc(C(F)(F)F)cc3-c3nc(C(=O)O)co3)CC2)cc1 [Example 79]	67	103
COc1ccc([C@@H]2CN(C(C)(C)C)C[C@@]2(F)C(=O)N2CC(c3ccc(C(F)(F)F)cc3N3CCC(C(=O)O)CC3)C2)cc1 [Example 84]	40	119
COc1ccc([C@@H]2CN(C(C)(C)C)C[C@@]2(F)C(=O)N2CCC(c3ccc(C(F)(F)F)cc3[C@H]3CC[C@H](C(=O)O)CC3)CC2)cc1 [Example 85]	60	75
COc1ccc([C@@H]2CN(C(C)(C)C)C[C@@]2(F)C(=O)N2CCC(C#N)(c3ccc(C(F)(F)F)cc3-c3ccc(C(=O)O)cc3)CC2)cc1 [Example 87]	56	90
CCc1ccc([C@@H]2CN(C(C)(C)C)C[C@@]2(F)C(=O)N2CCC(c3ccc(C(F)(F)F)cc3N3CCC(C(=O)O)CC3)CC2)cc1 [Example 91]	44	74
COc1ccc([C@@H]2CN(C(C)(C)C)C[C@@]2(F)C(=O)N2CCC(c3ccc(C(F)(F)F)cc3N3C[C@@H]4[C@H](C3)[C@H]4C(=O)O)CC2)cc1 [Example 94]	49	83
COC[C@H]1CN(C(=O)[C@]2(F)CN(C3CCOCC3)C[C@H]2c2ccc(OC)cc2)C[C@@H]1c1ccc(C(F)(F)F)cc1N1CCC(C(=O)O)CC1 [Example 95]	12	72
COc1ccc([C@@H]2CN([C@H]3CC[C@H](OC)CC3)C[C@@]2(F)C(=O)N2CCC(c3ccc(C(F)(F)F)cc3N3CCC(C(=O)O)CC3)CC2)cc1 [Example 98]	15	89
COC[C@H]1CN(C(=O)[C@]2(F)CN([C@H]3CC[C@H](OC)CC3)C[C@H]2c2ccc(OC)cc2)C[C@@H]1c1ccc(C(F)(F)F)cc1N1CCC(C(=O)O)CC1 [Example 99]	4.7	117
COc1ccc([C@@H]2CN(C3CCCC3)C[C@@]2(F)C(=O)N2C[C@H](c3ccc(F)cc3N3CCC(C(=O)O)CC3)[C@@H](C)C2)cc1 [Example 100]	9.7	90
COC[C@H]1CN(C(=O)[C@]2(F)CN([C@H]3CC[C@H](OC)CC3)C[C@H]2c2ccc(OC)cc2)C[C@@H]1c1ccc(C(F)(F)F)cc1N1CCC(C)(C(=O)O)CC1 [Example 103]	14	102
COc1ccc([C@@H]2CN(C3CCCC3)C[C@@]2(F)C(=O)N2C[C@H](c3ccc(C(F)(F)F)cc3N3CCC(C(=O)O)CC3)C[C@H]2CC#N)cc1 [Example 105]		86
COC[C@@H]1C[C@@H](c2ccc(Cl)cc2N2CCC(C(=O)O)CC2)CN1C(=O)[C@]1(F)CN([C@H]2CC[C@H](OC)CC2)C[C@H]1c1ccc(OC)cc1 [Example 111]	5.9	83
COC[C@@H]1C[C@@H](c2ccc(C(F)(F)F)cc2N(C)CCCC(=O)O)CN1C(=O)[C@]1(F)CN([C@H]2CC[C@H](OC)CC2)C[C@H]1c1ccc(OC)cc1 [Example 115]	11	85
CCO[C@H]1CC[C@@H](N2C[C@@H](c3ccc(OC)cc3)[C@](F)(C(=O)N3C[C@H](COC)[C@@H](c4ccc(C(F)(F)F)cc4N4CCC(C(=O)O)CC4)C3)C2)CC1 [Example 119]	15	53

The next lines start with the values.

EC50 [nM]	Human MC1R IA % [%]	SMILES
734	67	COc1ccc([C@@H]2CN(C3CCCC3)C[C@@]2(F)C(=O)N2CCCC(c3ccc(C(F)(F)F)cc3N3CCC(C(=O)O)CC3)C2)cc1 (single isomer, unassigned) [Example 291]
217	25	COc1ccc([C@@H]2CN(C3CCCC3)C[C@@]2(F)C(=O)N2CCCC(c3ccc(C(F)(F)F)cc3N3CCC(C(=O)O)CC3)C2)cc1 (single isomer, unassigned) [Example 292]
20	99	COc1ccc([C@@H]2CN(C3CCCC3)C[C@@]2(F)C(=O)N2CC(c3ccc(C(F)(F)F)cc3N3CCC(C(=O)O)CC3)C(F)(F)C2)cc1 (single isomer, unassigned) [Example 293]
804	81	COc1ccc([C@@H]2CN(C3CCCC3)C[C@@]2(F)C(=O)N2CC(c3ccc(C(F)(F)F)cc3N3CCC(C(=O)O)CC3)C(F)(F)C2)cc1 (single isomer, unassigned) [Example 294]
8.8	109	COC[C@@]1(F)CN(C(=O)[C@]2(F)CN([C@H]3CC[C@H](OC)CC3)C[C@H]2c2ccc(OC)cc2)C[C@@H]1c1ccc(C(F)(F)F)cc1N1CCC(C(=O)O)CC1 [Example 120]
24	74	COC[C@H]1CN(C(=O)[C@]2(OC)CN(C3CCCC3)C[C@H]2c2ccc(OC)cc2)C[C@@H]1c1ccc(C(F)(F)F)cc1N1CCC(C(=O)O)CC1 [Example 125]
11	76	COC[C@H]1CN(C(=O)[C@]2(F)CN(C3CCCC3)C[C@H]2c2ccc(OC)cc2)C[C@@H]1c1ccc(OC(F)(F)F)cc1N1CCC(C(=O)O)CC1 [Example 130]
0.45	96	COC[C@@H]1C[C@@H](c2ccc(C(F)(F)F)cc2N2CCC(C(=O)O)CC2)CN1C(=O)[C@]1(F)CN(C2CCCC2)C[C@H]1c1ccc(OC)cc1 [Example 134]
0.47	96	COC[C@@H]1C[C@@H](c2ccc(C(F)(F)F)cc2N2CCC(C(=O)O)CC2)CN1C(=O)[C@]1(F)CN([C@H]2CC[C@H](OC)CC2)C[C@H]1c1ccc(OC)cc1 [Example 135]
7.3	106	COC[C@@H]1C[C@@H](c2ccc(C(F)(F)F)cc2N2CCC(C(=O)O)CC2)CN1C(=O)[C@]1(F)CN(C2CCOCC2)C[C@H]1c1ccc(OC)cc1 [Example 137]
0.98	111	COC[C@@H]1C[C@@H](c2ccc(C(F)(F)F)cc2N2CCC(C(=O)O)CC2)CN1C(=O)[C@]1(F)CN(C2CCCCC2)C[C@H]1c1ccc(OC)cc1 [Example 138]
0.8	80	COC[C@@H]1C[C@@H](c2ccc(C(F)(F)F)cc2N2CCC(C(=O)O)CC2)CN1C(=O)[C@]1(F)CN(C2CCC2)C[C@H]1c1ccc(OC)cc1 [Example 139]
4.1	98	CCO[C@H]1CC[C@H](N2C[C@@H](c3ccc(OC)cc3)[C@](OC)(C(=O)N3C[C@H](COC)[C@@H](c4ccc(C(F)(F)F)cc4N4CCC(C(=O)O)CC4)C3)C2)CC1 [Example 140]
3.6	105	CCO[C@H]1CC[C@H](N2C[C@@H](c3ccc(OC)cc3)[C@](OC)(C(=O)N3C[C@H](c4ccc(C(F)(F)F)cc4N4CCC(C(=O)O)CC4)[C@@](F)(COC)C3)C2)CC1 [Example 141]
